For assay [1], the target named is GDP-bound NRAS wild-type protein (Homo sapiens, UniProt P01111). Put plainly: Binding to NRAS by surface plasmon resonance (SPR), Single Cycle Kinetics. A general note: In SPR one partner is held on a chip, and binding of the other changes the refractive index at the surface.
For assay [2], the target named is GDP-bound HRAS wild-type protein (Homo sapiens, UniProt P01112). Put plainly: Binding to HRAS by surface plasmon resonance (SPR), Single Cycle Kinetics.
Where [3] appears, read: KD ratio, GDP-bound NRAS wild-type vs GDP-bound KRAS wild-type, SPR.
The mark [4] stands for this setting: KD ratio, GDP-bound HRAS wild-type vs GDP-bound KRAS wild-type, SPR.

The structures appear in SMILES notation. *1 amine or outer side, *2 acyl side, *3 side chain or, on linkers, in order; H or OH if unused. Where a SMILES comes first, the peptide text is derived from it. Bridges are numbered along the chain shown (N, C = ends). [ ]: non-standard residue; d: D form. The star is where a group is joined. hPhe(3,5-F2-4-CF3) = N[C@@H](CCc1cc(F)c(C(F)(F)F)c(F)c1)C(=O)O; hPhe(3-Cl-4-CF3) = N[C@@H](CCc1ccc(C(F)(F)F)c(Cl)c1)C(=O)O; X28 = C#CCN([C@@H](Cc1ccc(C(F)(F)F)cc1)C(=O)[*:2])[*:1]; NPrPhe(4-CF3) = CCCN[C@@H](Cc1ccc(C(F)(F)F)cc1)C(=O)O; NMeGly(cPent) = CN[C@H](C(=O)O)C1CCCC1; Nva(3-Et) = CCC(CC)[C@H](N)C(=O)O; NMeD = CN[C@@H](CC(=O)O)C(=O)O; NMeL = CN[C@@H](CC(C)C)C(=O)O; Morpholide = C1CN(*)CCO1; NMeA = CN[C@@H](C)C(=O)O; Ac5c = NC1(C(=O)O)CCCC1; Aze = O=C(O)[C@@H]1CCN1; Sar = CNCC(=O)O

GDP-bound HRAS wild-type protein, sequence (P01112 whole entry): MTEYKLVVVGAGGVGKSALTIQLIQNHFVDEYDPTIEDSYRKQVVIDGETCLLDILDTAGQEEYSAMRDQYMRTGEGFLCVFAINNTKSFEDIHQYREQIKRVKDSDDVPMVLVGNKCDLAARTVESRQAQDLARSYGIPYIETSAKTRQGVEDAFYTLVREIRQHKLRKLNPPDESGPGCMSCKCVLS
GDP-bound NRAS wild-type protein, sequence (P01111 whole entry): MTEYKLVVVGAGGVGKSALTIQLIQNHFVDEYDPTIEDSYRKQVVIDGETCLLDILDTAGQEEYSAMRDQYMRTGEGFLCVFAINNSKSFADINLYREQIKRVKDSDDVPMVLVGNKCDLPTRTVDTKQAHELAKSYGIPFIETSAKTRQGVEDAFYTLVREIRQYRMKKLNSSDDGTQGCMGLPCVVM

Regarding `CC[C@H](C)[C@@H]1NC(=O)[C@H](CC2CC2)N(C)C(=O)C[C@@H](C(=O)N(C)CC)N(C)C(=O)[C@H](C2CCCC2)N(C)C(=O)C2(CCC2)NC(=O)[C@@H]2CC(F)(F)CN2C(=O)[C@H](CCc2cc(F)c(C(F)(F)F)c(F)c2)NC(=O)CN(C)C(=O)[C@H](Cc2ccc(C(F)(F)F)cc2)N2CC/C=C\C[C@@H](C2=O)N(C)C(=O)CN(C)C1=O` [PP1538], in assay [1] (SPR, KD ratio class), the “NRAS/KRAS (ratio of KD value for GDP-bound NRAS wild-type protein to KD value for KRAS)” value was “A (a compound having 10 or more and less than 20 is denoted as A)”. For the same compound, the “HRAS/KRAS (ratio of KD value for GDP-bound HRAS wild-type protein to KD value for KRAS)” value in assay [2] (SPR, KD ratio class) is “B (a compound having 3 or more and less than 10 is denoted as B)”.

As to `CCO[C@@H]1C[C@H]2C(=O)NC3(CC(C)(C)C3)C(=O)N(C)[C@@H](C3CCCC3)C(=O)N(C)[C@H](C(=O)N(C)C)CC(=O)N(C)[C@@H](CC)C(=O)N[C@@H]([C@@H](C)CC)C(=O)N(C)CC(=O)N(C)[C@H]3C/C=C\CCN(C3=O)[C@@H](Cc3ccc(C)cc3)C(=O)N(C)CC(=O)N[C@@H](CCc3ccc(C(F)(F)F)c(OC)c3)C(=O)N2C1` [PP1873], in assay [1] (setting [3]), the “NRAS/KRAS (ratio of KD value for NRAS to KD value for KRAS)” value is “A (a compound having 10 or more and less than 20 is denoted as A)”. For the same compound, in assay [2] (setting [4]), the “HRAS/KRAS (ratio of KD value for HRAS to KD value for KRAS)” value was “B (a compound having 3 or more and less than 10 is denoted as B)”.

`C#CCN1C(=O)[C@@H]2CCN2C(=O)[C@H](C)N(C)C(=O)[C@H]([C@@H](C)CC)NC(=O)[C@H](CC(C)C)N(C)C(=O)C[C@@H](C(=O)N2CCOCC2)N(C)C(=O)[C@H](C2CCCC2)N(C)C(=O)C2(CCCC2)NC(=O)[C@@H]2CCCN2C(=O)[C@H](CCc2ccc(C(F)(F)F)c(Cl)c2)NC(=O)CN(C)C(=O)[C@@H]1Cc1ccc(C(F)(F)F)cc1` [PP0116] ([NMeL]I[NMeA][Aze][X28][Sar][hPhe(3-Cl-4-CF3)]P[Ac5c][NMeGly(cPent)][NMeD]-Morpholide; lactam N-11): the “NRAS/KRAS (ratio of KD for GDP-bound NRAS wild-type to KD for KRAS)” value in assay [1] (KD ratio NRAS/KRAS, SPR) was “C (A compound having a KD ratio of 0.1 or more and less than 3 is denoted as C)”. In assay [2] (KD ratio HRAS/KRAS, SPR), the “HRAS/KRAS (ratio of KD for GDP-bound HRAS wild-type to KD for KRAS)” value is “C (A compound having a KD ratio of 0.1 or more and less than 3 is denoted as C)”.

On to `CCCN1C(=O)CN(C)C(=O)CN(C)C(=O)[C@H](C(CC)CC)NC(=O)[C@H](CC(C)C)N(C)C(=O)C[C@@H](C(=O)N2CCOCC2)N(C)C(=O)[C@H](C2CCCC2)N(C)C(=O)C2(CCCC2)NC(=O)[C@@H]2CCCN2C(=O)[C@H](CCc2cc(F)c(C(F)(F)F)c(F)c2)NC(=O)CN(C)C(=O)[C@@H]1Cc1ccc(C(F)(F)F)cc1` [PP0768] ([NMeL][Nva(3-Et)][Sar][Sar][NPrPhe(4-CF3)][Sar][hPhe(3,5-F2-4-CF3)]P[Ac5c][NMeGly(cPent)][NMeD]-Morpholide; lactam N-11), for which, in assay [1] (KD ratio NRAS/KRAS, SPR), the “NRAS/KRAS (ratio of KD value with respect to GDP-bound NRAS wild-type protein to KD value with respect to KRAS)” value was “B (a compound having 3 or more and less than 10 is denoted as B)”. In addition, in assay [2] (KD ratio HRAS/KRAS, SPR), the “HRAS/KRAS (ratio of KD value with respect to GDP-bound HRAS wild-type protein to KD value with respect to KRAS)” value was “C (A compound having a KD ratio of 0.1 or more and less than 3 is denoted as C)”.

For `CCO[C@@H]1C[C@H]2C(=O)NC3(CCC3)C(=O)N(C)[C@@H](C3CCCC3)C(=O)N(C)[C@H](C(=O)N(C)C)CC(=O)N(C)[C@@H](CC3CCCC3)C(=O)N[C@@H]([C@@H](C)CC)C(=O)N(C)CC(=O)N(C)[C@H]3C/C=C\CCN(C3=O)[C@@H](Cc3ccc(C(F)(F)F)cc3)C(=O)N(C)CC(=O)N[C@@H](CCc3ccc(C(F)(F)F)c(Cl)c3)C(=O)N2C1` [PP2842], the “NRAS/KRAS (ratio of KD value with respect to GDP-bound NRAS wild-type protein to KD value with respect to KRAS)” value in assay [1] (KD ratio NRAS/KRAS, class symbols) was “A (a compound having 10 or more and less than 20 is denoted as A)”. Further, the “HRAS/KRAS (ratio of KD value with respect to GDP-bound HRAS wild-type protein to KD value with respect to KRAS)” value in assay [2] (KD ratio HRAS/KRAS, class symbols) was “B (a compound having 3 or more and less than 10 is denoted as B)”.

In the case of `CCO[C@@H]1C[C@H]2C(=O)NC3(CCC3)C(=O)N(C)[C@@H](C3CCCC3)C(=O)N(C)[C@H](C(=O)N3CCOCC3)CC(=O)N(C)[C@@H](Cc3ccccc3C#N)C(=O)N[C@@H]([C@@H](C)CC)C(=O)N(C)CC(=O)N(C)[C@H]3CCCCCN(C3=O)[C@@H](Cc3ccc(F)cc3)C(=O)N(C)CC(=O)N[C@@H](CCc3cc(F)c(C(F)(F)F)c(F)c3)C(=O)N2C1` [PP1185], the “NRAS/KRAS (ratio of KD value with respect to NRAS to KD value with respect to KRAS)” value in assay [1] (setting [3]) is “B (a compound having 3 or more and less than 10 is denoted as B)”. For the same compound, the “HRAS/KRAS (ratio of KD value with respect to HRAS to KD value with respect to KRAS)” value in assay [2] (setting [4]) is “B (a compound having 3 or more and less than 10 is denoted as B)”.

Turning to `C=CC[C@H]1C(=O)N[C@@H]([C@@H](C)CC)C(=O)N(C)CC(=O)N(C)[C@H]2CCCCCN(C2=O)[C@@H](Cc2ccc(C(F)(F)F)cc2)C(=O)N(C)CC(=O)N[C@@H](CCc2cc(F)c(C(F)(F)F)c(F)c2)C(=O)N2C[C@H](OCC)C[C@H]2C(=O)N[C@](C)(CC=C)C(=O)N(C)[C@@H](C2CCCC2)C(=O)N(C)[C@H](C(=O)N2CCOCC2)CC(=O)N1C` [PP0878], the “NRAS/KRAS (ratio of KD value with respect to NRAS to KD value with respect to KRAS)” value in assay [1] (setting [3]) was “B (a compound having 3 or more and less than 10 is denoted as B)”. The “HRAS/KRAS (ratio of KD value with respect to HRAS to KD value with respect to KRAS)” value in assay [2] (setting [4]) was “B (a compound having 3 or more and less than 10 is denoted as B)”.

For the origin of these results see patent US20250230193A1, “CYCLIC COMPOUND HAVING SELECTIVE KRAS INHIBITORY EFFECT ON HRAS AND NRAS” (CHUGAI SEIYAKU KABUSHIKI KAISHA, priority 2022, published 2025).
